Legend:
FAB1 TDP-43 yeast strain = assay: Propidium iodide viability assay in FAB1 TDP-43 control yeast strain; type: cell-based; conditions: across a range of compound concentrations (FIG. 5, 0.23 μM shown)
Method: Generation of TDP-43 yeast model expressing human PIKfyve. Human PIKFYVE (“entry clone”) was cloned into pAG416GPDccdB (“destination vector”) according to standard Gateway cloning protocols (Invitrogen, Life Technologies). The resulting pAG416GPD-PIKFYVE plasmids were amplified in E. coli and plasmid identity confirmed by restriction digest and Sanger sequencing. […]
Transformed yeast were plated on solid agar plates with complete synthetic media lacking uracil (CSM-ura) and containing 2% glucose. […] Multiple independent isolates were further evaluated for cytotoxicity and TDP-43 expression levels.
Viability Assay. A control yeast strain with the wild-type yeast FAB1 gene and TDP-43 (“FAB1 TDP-43”, carries empty pAG416 plasmid), and the “PIKFYVE TDP-43” yeast strain, were assessed for toxicity using a propidium iodide viability assay. […] Wells containing DMSO alone were also evaluated as controls for compound effects. […]
Upon the completion of incubation, cultures were assayed for viability using propidium iodide (PI) to stain for dead/dying cells. […] A benchtop flow cytometer (Miltenyi MACSquant) was then used to assess red fluorescence (B2 channel), forward scatter, and side scatter (with following settings: gentle mix, high flow rate, fast measurement, 10,000 events). […]

[1] = system: PIKFYVE TDP-43 yeast strain; assay: Propidium iodide viability assay in PIKFYVE TDP-43 yeast strain; type: cell-based
Source text: Generation of TDP-43 yeast model expressing human PIKfyve. Human PIKFYVE (“entry clone”) was cloned into pAG416GPDccdB (“destination vector”) according to standard Gateway cloning protocols (Invitrogen, Life Technologies). The resulting pAG416GPD-PIKFYVE plasmids were amplified in E. coli and plasmid identity confirmed by restriction digest and Sanger sequencing. Lithium acetate/polyethylene glycol-based transformation was used to introduce the above PIKFYVE plasmid into a BY4741 yeast strain auxotrophic for the ura3 gene and deleted for two transcription factors that regulate the xenobiotic efflux pumps, a major efflux pump, and FAB1, the yeast ortholog of PIKFYVE (MATa, snq2::KILeu2; pdr3::Klura3;pdr1::NATMX; fab1::G418^R, his3;leu2;ura3;met15;LYS2+) (FIG. 2).
Transformed yeast were plated on solid agar plates with complete synthetic media lacking uracil (CSM-ura) and containing 2% glucose. Individual colonies harboring the control or PIKFYVE TDP-43 plasmids were recovered. A plasmid containing wild-type TDP-43 under the transcriptional control of the GAL1 promoter and containing the hygromycin-resistance gene as a selectable marker was transformed into the fab1::G418^R pAG416GPD-PIKFYVE yeast strain (FIG. 1). Transformed yeast were plated on CSM-ura containing 2% glucose and […] after overnight recovery in media lacking antibiotic. Multiple independent isolates were further evaluated for cytotoxicity and TDP-43 expression levels.
Viability Assay. A control yeast strain with the wild-type yeast FAB1 gene and TDP-43 (“FAB1 TDP-43”, carries empty pAG416 plasmid), and the “PIKFYVE TDP-43” yeast strain, were assessed for toxicity using a propidium iodide viability assay. Both yeast strains were transferred from solid CSM-ura/2% glucose agar plates into 3 mL of liquid CSM-ura/2% glucose media for 6-8 hours at 30° C. with aeration. Yeast cultures were then diluted to an optical density at 600 nm wavelength (OD600) of 0.005 in 3 mL of CSM-ura/2% raffinose and grown overnight at 30° C. with aeration to an OD600 of 0.3-0.8. Log-phase overnight cultures were diluted to OD600 of 0.005 in CSM-ura containing either 2% raffinose or galactose and 150 μL dispensed into each well of a flat bottom 96-well plates. Compounds formulated in 100% dimethyl sulfoxide (DMSO) were serially diluted in DMSO and 1.5 μL diluted compound transferred to the 96-well plates using a multichannel pipet. Wells containing DMSO alone were also evaluated as controls for compound effects. Tested concentrations ranged from 15 μM to 0.11 μM. Cultures were immediately mixed to ensure compound distribution and covered plates incubated at 30° C. for 24 hours in a stationary, humified incubator.
Upon the completion of incubation, cultures were assayed for viability using propidium iodide (PI) to stain for dead/dying cells. A working solution of PI was made where, for each plate, 1 μL of 10 mM PI was added to 10 mL of CSM-ura (raffinose or galactose). The final PI solution (50 μL/well) was dispensed into each well of a new round bottom 96-well plate. The overnight 96-well assay plate was then mixed with a multichannel pipet and 50 μL transferred to the PI-containing plate. This plate was then incubated for 30 minutes at 30° C. in the dark. A benchtop flow cytometer (Miltenyi MACSquant) was then used to assess red fluorescence (B2 channel), forward scatter, and side scatter (with following settings: gentle mix, high flow rate, fast measurement, 10,000 events). Intensity histograms were then gated for “PI-positive” or “PI-negative” using the raffinose and galactose cultures treated with DMSO as controls. The DMSO controls for raffinose or galactose-containing cultures were used to determine the window of increased cell death and this difference set to 100. All compounds were similarly gated and then compared to this maximal window to establish the percent reduction in PI-positive cells.

[2] = biological target: T1, full-length human PIKFYVE (Homo sapiens, UniProt Q9Y2I7, L932S/Q1183K/Q995L/S1033A/S696N/T998S); assay: PIKfyve biochemical assay (ADP-Glo Kinase assay, Carna Biosciences); conditions: GST-PIKFYVE, 10 μM to 3 nM in duplicate, read-out: hPIKfyve IC50
T1 construct: A full-length human PIKFYVE [1-2098(end) amino acids and S696N, L932S, Q995L, T998S, S1033A and Q1183K; purchased Carna Biosciences; host or cells: baculovirus expression system

PIKfyve = biological target: T2, PIKfyve (Homo sapiens, UniProt Q9Y2I7); assay: NanoBRET TE Intracellular Kinase Assay, K-8 (Promega) cell-based assay; conditions: HEK293 cells transfected with PIKFYVE-NanoLuc, compounds 2 hours; read-out: hPIKfyve BRET IC50
T2 construct: PIKFYVE-NanoLuc® Fusion Vector (Promega) containing a full-length PIKfyve; host or cells: HEK293
Method: NanoBRET™ TE Intracellular Kinase Assay, K-8 (Promega) Cell-Based Assay. Intracellular inhibition of PIKfyve was assayed using Promega's NanoBRET™ TE Intracellular Kinase Assay, K-8 according to manufacturer's instructions. A dilution series of test compounds was added for 2 hours to HEK293 cells transfected for a minimum of 20 hours with PIKFYVE-NanoLuc® Fusion Vector (Promega) containing a full-length PIKfyve according to manufacturer's specifications in a 96-well plate. Kinase activity was detected by addition of a NanoBRET™ tracer reagent, which was a proprietary PIKfyve inhibitor appended to a fluorescent probe (BRET, bioluminescence resonance energy transfer). Test compounds were tested at concentrations of 10, 3, 1, 0.3, 0.1, 0.03, 0.01, 0.003 μM. BRET signals were measured by a GloMax® Discover Multimode Microplate Reader (Promega) using 0.3 sec/well integration time, 450BP donor filter and 600LP acceptor filters. Active test compounds that bound PIKfyve and displaced the tracer reduced BRET signal. IC50 values were then calculated by fitting the data to the normalized BRET ratio.

T2 sequence (Q9Y2I7 whole entry, the tested form may be a part): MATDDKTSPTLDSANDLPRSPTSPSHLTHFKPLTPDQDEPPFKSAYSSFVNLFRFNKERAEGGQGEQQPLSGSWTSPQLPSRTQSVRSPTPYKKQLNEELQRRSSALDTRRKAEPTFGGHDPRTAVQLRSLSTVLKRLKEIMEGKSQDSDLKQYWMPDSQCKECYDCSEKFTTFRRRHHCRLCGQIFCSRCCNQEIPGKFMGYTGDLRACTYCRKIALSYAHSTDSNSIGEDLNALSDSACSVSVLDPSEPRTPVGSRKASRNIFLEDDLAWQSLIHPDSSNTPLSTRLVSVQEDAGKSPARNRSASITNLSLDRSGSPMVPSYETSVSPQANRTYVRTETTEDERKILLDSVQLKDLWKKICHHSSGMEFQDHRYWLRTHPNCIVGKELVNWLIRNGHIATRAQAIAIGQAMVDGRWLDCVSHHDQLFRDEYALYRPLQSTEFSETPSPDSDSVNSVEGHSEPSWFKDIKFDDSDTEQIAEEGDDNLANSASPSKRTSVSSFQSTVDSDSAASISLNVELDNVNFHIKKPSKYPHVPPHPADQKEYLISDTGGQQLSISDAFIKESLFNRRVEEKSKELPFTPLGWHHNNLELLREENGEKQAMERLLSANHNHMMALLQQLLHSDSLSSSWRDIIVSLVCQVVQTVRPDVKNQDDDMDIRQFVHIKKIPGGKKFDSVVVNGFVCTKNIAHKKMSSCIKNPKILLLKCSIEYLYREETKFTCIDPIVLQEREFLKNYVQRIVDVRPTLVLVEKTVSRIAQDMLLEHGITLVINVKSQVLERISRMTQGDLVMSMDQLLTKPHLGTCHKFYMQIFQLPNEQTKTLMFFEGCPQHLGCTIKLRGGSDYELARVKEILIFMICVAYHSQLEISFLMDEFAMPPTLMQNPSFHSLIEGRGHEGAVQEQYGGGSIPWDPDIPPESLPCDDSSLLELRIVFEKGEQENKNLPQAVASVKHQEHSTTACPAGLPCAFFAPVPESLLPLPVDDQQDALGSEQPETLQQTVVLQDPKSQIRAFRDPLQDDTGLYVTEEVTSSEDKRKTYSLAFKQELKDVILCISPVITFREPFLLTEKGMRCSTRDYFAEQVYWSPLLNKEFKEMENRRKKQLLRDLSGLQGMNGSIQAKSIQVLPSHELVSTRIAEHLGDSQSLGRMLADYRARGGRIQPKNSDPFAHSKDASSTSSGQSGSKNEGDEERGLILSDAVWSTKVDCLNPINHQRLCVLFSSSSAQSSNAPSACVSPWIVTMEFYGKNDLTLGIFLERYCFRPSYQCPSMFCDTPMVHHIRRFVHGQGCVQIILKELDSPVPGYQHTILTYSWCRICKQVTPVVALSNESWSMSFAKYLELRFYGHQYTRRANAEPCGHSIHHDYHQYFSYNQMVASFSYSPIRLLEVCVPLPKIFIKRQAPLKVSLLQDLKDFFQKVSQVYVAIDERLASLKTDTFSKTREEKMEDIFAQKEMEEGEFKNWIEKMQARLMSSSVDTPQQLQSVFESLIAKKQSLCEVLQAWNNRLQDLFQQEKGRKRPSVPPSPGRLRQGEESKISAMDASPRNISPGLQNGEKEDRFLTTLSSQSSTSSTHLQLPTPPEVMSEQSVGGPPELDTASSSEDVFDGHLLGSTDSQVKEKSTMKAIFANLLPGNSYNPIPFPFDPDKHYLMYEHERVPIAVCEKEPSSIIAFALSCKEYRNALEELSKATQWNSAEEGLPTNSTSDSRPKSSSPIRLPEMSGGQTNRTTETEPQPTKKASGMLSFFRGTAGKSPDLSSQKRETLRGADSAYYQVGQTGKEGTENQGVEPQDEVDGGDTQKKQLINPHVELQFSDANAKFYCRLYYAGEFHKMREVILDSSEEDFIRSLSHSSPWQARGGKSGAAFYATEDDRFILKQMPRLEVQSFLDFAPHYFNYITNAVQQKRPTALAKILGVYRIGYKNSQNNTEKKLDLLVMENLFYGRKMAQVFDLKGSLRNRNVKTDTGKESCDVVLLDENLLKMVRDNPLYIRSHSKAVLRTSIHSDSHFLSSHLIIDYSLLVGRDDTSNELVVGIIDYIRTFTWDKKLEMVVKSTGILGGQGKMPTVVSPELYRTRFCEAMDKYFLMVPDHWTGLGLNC
T1 sequence (Q9Y2I7 whole entry S696N/L932S/Q995L/T998S/S1033A/Q1183K): as the sequence (Q9Y2I7 whole entry, the tested form may be a part) above, with S696N, L932S, Q995L, T998S, S1033A, Q1183K counted along it

Row | SMILES | viable cells in FAB1 TDP-43 (FAB1 TDP-43 yeast strain) | propidium iodide-positive dead cells in PIKFYVE TDP-43 model ([1]; 0.23 μM (FIG. 6)) | concentrations that afforded increased viability ([1]; PIKFYVE TDP-43 model) | IC50 [2] [nM] | IC50 (PIKfyve) [nM]
1 | Cc1cccc(/C=N/Nc2cc(N3CCOCC3)n3nc(-c4ccncc4)cc3n2)c1 [APY0201, reference compound] | no increase in viable cells | reduced the population of propidium iodide-positive dead cells | 0.5 mM to less than 100 nM |  | 
2 | c1ccc(-c2ccn(-c3nc(N4CCOCC4)c4ncccc4n3)n2)nc1 [Compound 12, 4-(2-(3-(pyridin-2-yl)-1H-pyrazol-1-yl)pyrido[3,2-d]pyrimidin-4-yl)morpholine] |  |  |  | 100 to 1000 | 1000 to 10000

From patent publication US20250288589A1, “PYRIDOPYRIMIDINES AND METHODS OF THEIR USE” (Kineta, Inc., priority 2021, published 2025)
